SMILES strings stand for the structures. Active and inactive are the calls of the source. The rule behind the calls is not given here.

Peptidyl-prolyl cis-trans isomerase FKBP1A (Homo sapiens), sequence (P62942 whole entry, looked up): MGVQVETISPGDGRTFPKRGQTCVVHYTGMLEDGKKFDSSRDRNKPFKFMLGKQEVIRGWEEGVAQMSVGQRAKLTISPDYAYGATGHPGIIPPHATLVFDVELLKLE

This assay concerns the target Peptidyl-prolyl cis-trans isomerase FKBP1A (Homo sapiens) (UniProt P62942). Description: FKBP12 binders, biophysical, NMR detection (AID 608). To be noted: NMR binding, purified FKBP12.
As for `NC(=O)C1CCN(c2ncnc(N)c2[N+](=O)[O-])CC1`, the Kd (commonly a measure of binding affinity in units of concentration) was > 4 mM (inactive). Consider `CC(=O)Nc1cccc(N2C(=O)CCC2=O)c1`, for which the Kd was > 4 mM (inactive). As for `Cc1ccc(OCC(=O)N2CC(C)OC(C)C2)cc1C` (configuration not stated), the Kd is > 4 mM (inactive). Next, `CN1C2CC(OC(=O)[C@H](CO)c3ccccc3)C[C@H]1[C@H]1OC21` (some centres not stated): > 4 mM (inactive); `c1ccc(CNc2ncnc3nc[nH]c23)nc1`: > 4 mM (inactive); `Cc1noc(C)c1C(=O)NC1=NCCS1`: > 4 mM (inactive). In the case of `COC(=O)Cc1cc(=O)n(-c2nc3ccccc3s2)[nH]1`, the Kd was > 4 mM (inactive). In the case of `O=C(CSc1ncnc2ccccc12)NCCCO`, the Kd is > 4 mM (inactive). Under `O=C1CCC(=O)N1c1ccc(O)cc1` stands > 4 mM (inactive); under `Cn1cc(Cl)c(C(=O)NC2CCCCCC2)n1`, > 4 mM (inactive). In the case of `CC1(C)CC23C(=O)CCC(O)C2(C)CCC13` (configuration not stated), the Kd was > 4 mM (inactive). Next, `Cn1cnc2nc3n(c2c1=O)CCC3`: > 4 mM (inactive); `Nc1nc(-c2ccc(Cl)cc2)nn1C(=O)c1cccnc1`: > 4 mM (inactive); `Cc1ccc(S(=O)(=O)CCc2ccccn2)cc1`: > 4 mM (inactive).

For `C=CC1=C(C)/C(=C/c2[nH]c(Cc3[nH]c(/C=C4\NC(=O)C(C)=C4C=C)c(C)c3CCC(=O)O)c(CCC(=O)O)c2C)NC1=O`, the Kd was > 4 mM (inactive).

Turning to `NC(=O)C1CCN(C(=O)c2ccccc2F)CC1`, the Kd was > 4 mM (inactive). Next, `O=C(Nc1nc2ccccc2s1)c1ccc(=O)[nH]n1`: > 4 mM (inactive). Consider `Cc1cc(C)c(C(N)=O)c(=S)[nH]1`, for which the Kd is > 4 mM (inactive).

In the case of `O=C(O)Cc1n[nH]c(=O)c2ccccc12`, the Kd was > 4 mM (inactive).

As to `Cc1nnc(NCCN2CCOCC2)[nH]c1=O`, the Kd is > 4 mM (inactive). Turning to `OCc1ccc2c(c1)CCO2`, the Kd was > 4 mM (inactive). Under `O=C(CNC(=O)c1ccc(F)cc1)NC1=NCCS1` stands > 4 mM (inactive); under `CNC(=O)C1=NCCCc2cc(OC)c(OC)cc21`, > 4 mM (inactive); under `CC(=O)Oc1ccc(O)cc1`, > 4 mM (inactive).

For the compound `CCCc1cc(=O)[nH]c2nnc(SCC(C)=O)n12`, the Kd was > 4 mM (inactive). `COc1ccc2c(c1OC)C(=O)O[C@H]2[C@H]1c2cc3c(cc2CCN1C)OCO3`: the Kd is > 4 mM (inactive).

Turning to `COc1ccccc1/C=C/CN1CCOCC1`, the Kd was > 4 mM (inactive).

As to `CN(C)C1CCS(=O)(=O)C1` (configuration not stated), the Kd is > 4 mM (inactive).

In the case of `N#CCCn1ccnc1-c1ccccc1`, the Kd is > 4 mM (inactive). For `CNC(=S)Nc1ccc(OC)cc1C`, the Kd is > 4 mM (inactive). For the compound `Cc1cccc(NC(=O)Nc2cc(C)on2)c1`, the Kd is > 4 mM (inactive). For `C=C(C)CSc1nc2nc(C)cc(C)n2n1`, the Kd is > 4 mM (inactive). Next, `Cc1cccc(C)c1N1C(=O)CCC1=O`: > 4 mM (inactive); `CCC(=O)NC(=S)Nc1ccc(N2CCOCC2)cc1`: > 4 mM (inactive); `Nc1nc2ccc(C(=O)O)cc2s1`: > 4 mM (inactive).

As to `COC(CC(=O)O)c1nc2ccccc2s1` (configuration not stated), the Kd is > 4 mM (inactive). For `O=C(O)c1cnc2sc3ccccc3n2c1=O`, the Kd was > 4 mM (inactive).

Take `COc1cc(/C=C2/NC(=S)NC2=O)cc(Cl)c1O`: the Kd was > 4 mM (inactive).

Turning to `O=C(NC(=S)NC1CCSC1=O)c1ccco1` (configuration not stated), the Kd was > 4 mM (inactive). Under `COc1ccc(S(=O)(=O)NCCO)cc1` stands > 4 mM (inactive). Next, `c1cncc(C2CCCCN2)c1` (configuration not stated): > 4 mM (inactive); `Nc1ccc(NS(=O)(=O)c2ccc(N)cc2)cc1`: > 4 mM (inactive).
